Columns and labels:
[1] = molecular target: T1, HCV NS3/4A protease complex, BMS strain (UniProt P27958, species not given/STRAIN_BMS); experiment: FRET peptide assay to monitor HCV NS3/4A proteolytic activity (BMS strain); format: biochemical, Hepatitis C virus (genotype 1a); settings: read-out: HCV Protease (IC50); NS3/4A BMS strain; activity range class
T1 construct: other: NS3/4A BMS strain; activity range class; numeric values, unit not given; said of H77 and J4L6S; fused on or other part: A three-lysine solubilising tail at the C-terminus of NS4A; A His tag is implied by the pET21b vector and Ni-NTA purification; Both are printed for the H77 and J4L6S constructs and apply to BMS by inference
T1 sequence (P27958 1027-1657, change not shown, one chain of several): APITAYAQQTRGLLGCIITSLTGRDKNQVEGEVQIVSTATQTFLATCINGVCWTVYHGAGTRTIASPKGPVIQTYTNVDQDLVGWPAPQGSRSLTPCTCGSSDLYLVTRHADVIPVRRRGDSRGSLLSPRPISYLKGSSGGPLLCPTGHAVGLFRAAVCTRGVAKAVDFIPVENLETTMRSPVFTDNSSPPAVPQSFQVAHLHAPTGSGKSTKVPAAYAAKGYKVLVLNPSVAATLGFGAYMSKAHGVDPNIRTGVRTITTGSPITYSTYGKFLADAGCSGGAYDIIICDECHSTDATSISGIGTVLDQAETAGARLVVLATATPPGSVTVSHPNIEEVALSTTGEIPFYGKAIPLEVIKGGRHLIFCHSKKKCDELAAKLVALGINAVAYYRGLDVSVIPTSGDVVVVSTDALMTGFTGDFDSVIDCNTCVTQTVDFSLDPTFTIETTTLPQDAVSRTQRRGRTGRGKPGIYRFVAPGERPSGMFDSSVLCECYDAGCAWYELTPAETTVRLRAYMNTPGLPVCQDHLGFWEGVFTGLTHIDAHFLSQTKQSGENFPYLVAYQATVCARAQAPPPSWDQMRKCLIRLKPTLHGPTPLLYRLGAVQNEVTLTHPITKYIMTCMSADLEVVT
Procedure, shortened: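 Purified recombinant NS3/4A complex from genotype 1a BMS strain, 2-3 nM final, with RET S1 EDANS/DABCYL depsipeptide substrate at 2 μM final in HEPES pH 7.5, NaCl, Triton, glycerol, βME. Cleavage followed in real time by fluorescence. For high-potency compounds: 50 μg/ml BSA added, protease lowered to 300 pM.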

[2] = system: HCV replicon (strain 1b) in HUH-7 cells; experiment: HCV replicon FRET assay; format: cell-based, Hepatitis C virus; settings: Hepatitis C virus, Huh-7, read-out: HCV Pro Replicon (EC50), HCV replicon cell assay; activity range class

## C=C[C@@H]1C[C@]1(NC(=O)[C@@H]1C[C@@H](Oc2ncc(OC)c3ccc(Cl)cc23)CN1C(=O)[C@@H](Nc1cccc(C(=O)OC(C)(C)C)c1)C(C)(C)C)C(=O)NS(=O)(=O)C1CC1 [210 first isomer, N-(3-(tert-butoxycarbonyl)phenyl)-3-methyl-L-valyl-(4R)-4-((7-chloro-4-methoxy-1-isoquinolinyl)oxy)-N-((1R,2S)-1-((cyclopropylsulfonyl)carbamoyl)-2-vinylcyclopropyl)-L-prolinamide]
[1]
  IC50: 0.0006 to 0.02 µM
[2]
  EC50: 0.003 to 0.1 µM

## C=C[C@@H]1C[C@]1(NC(=O)[C@@H]1C[C@@H](Oc2ncc(OC)c3ccc(Cl)cc23)CN1C(=O)[C@H](Nc1cccc(C(=O)OC(C)(C)C)c1)C(C)(C)C)C(=O)NS(=O)(=O)C1CC1 [210 second isomer, N-(3-(tert-butoxycarbonyl)phenyl)-3-methyl-D-valyl-(4R)-4-((7-chloro-4-methoxy-1-isoquinolinyl)oxy)-N-((1R,2S)-1-((cyclopropylsulfonyl)carbamoyl)-2-vinylcyclopropyl)-L-prolinamide]
[1]
  IC50: 0.02 to 0.2 µM
[2]
  EC50: 0.1 to 1 µM

## C=C[C@@H]1C[C@]1(NC(=O)[C@@H]1C[C@@H](Oc2ncc(OC)c3ccc(Cl)cc23)CN1C(=O)[C@@H](Nc1cccc(C(=O)O)c1)C(C)(C)C)C(=O)NS(=O)(=O)C1CC1 [211 first isomer, N-(3-carboxyphenyl)-3-methyl-L-valyl-(4R)-4-((7-chloro-4-methoxy-1-isoquinolinyl)oxy)-N-((1R,2S)-1-((cyclopropylsulfonyl)carbamoyl)-2-vinylcyclopropyl)-L-prolinamide]
[1]
  IC50: 0.0006 to 0.02 µM
[2]
  EC50: 0.003 to 0.1 µM

## C=C[C@@H]1C[C@]1(NC(=O)[C@@H]1C[C@@H](Oc2ncc(OC)c3ccc(Cl)cc23)CN1C(=O)[C@H](Nc1cccc(C(=O)O)c1)C(C)(C)C)C(=O)NS(=O)(=O)C1CC1 [211 second isomer, N-(3-carboxyphenyl)-3-methyl-D-valyl-(4R)-4-((7-chloro-4-methoxy-1-isoquinolinyl)oxy)-N-((1R,2S)-1-((cyclopropylsulfonyl)carbamoyl)-2-vinylcyclopropyl)-L-prolinamide]
[1]
  IC50: > 0.2 µM
[2]
  EC50: 0.003 to 0.1 µM

## C=C[C@@H]1C[C@]1(NC(=O)[C@@H]1C[C@@H](Oc2ncc(OC)c3ccc(Cl)cc23)CN1C(=O)[C@@H](Nc1cccc(C(=O)NC(C)(C)C)c1)C(C)(C)C)C(=O)NS(=O)(=O)C1CC1 [212 first isomer, N-(3-(tert-butylcarbamoyl)phenyl)-3-methyl-L-valyl-(4R)-4-((7-chloro-4-methoxy-1-isoquinolinyl)oxy)-N-((1R,2S)-1-((cyclopropylsulfonyl)carbamoyl)-2-vinylcyclopropyl)-L-prolinamide]
[1]
  IC50: > 0.2 µM
[2]
  EC50: 0.1 to 1 µM

## C=C[C@@H]1C[C@]1(NC(=O)[C@@H]1C[C@@H](Oc2ncc(OC)c3ccc(Cl)cc23)CN1C(=O)[C@H](Nc1cccc(C(=O)NC(C)(C)C)c1)C(C)(C)C)C(=O)NS(=O)(=O)C1CC1 [212 second isomer, N-(3-(tert-butylcarbamoyl)phenyl)-3-methyl-D-valyl-(4R)-4-((7-chloro-4-methoxy-1-isoquinolinyl)oxy)-N-((1R,2S)-1-((cyclopropylsulfonyl)carbamoyl)-2-vinylcyclopropyl)-L-prolinamide]
[1]
  IC50: 0.0006 to 0.02 µM
[2]
  EC50: 0.003 to 0.1 µM

## C=C[C@@H]1C[C@]1(NC(=O)[C@@H]1C[C@@H](Oc2ncc(OC)c3ccc(Cl)cc23)CN1C(=O)[C@@H](Nc1ccc(S(=O)(=O)NC(C)(C)C)cc1)C(C)(C)C)C(=O)NS(=O)(=O)C1CC1 [214 first isomer, N-(4-(tert-butylsulfamoyl)phenyl)-3-methyl-L-valyl-(4R)-4-((7-chloro-4-methoxy-1-isoquinolinyl)oxy)-N-((1R,2S)-1-((cyclopropylsulfonyl)carbamoyl)-2-vinylcyclopropyl)-L-prolinamide]
[1]
  IC50: 0.0006 to 0.02 µM
[2]
  EC50: 0.1 to 1 µM

## C=C[C@@H]1C[C@]1(NC(=O)[C@@H]1C[C@@H](Oc2ncc(OC)c3ccc(Cl)cc23)CN1C(=O)[C@@H](Nc1cccc(C(N)=O)c1)C(C)(C)C)C(=O)NS(=O)(=O)C1CC1 [217 first isomer, N-(3-carbamoylphenyl)-3-methyl-L-valyl-(4R)-4-((7-chloro-4-methoxy-1-isoquinolinyl)oxy)-N-((1R,2S)-1-((cyclopropylsulfonyl)carbamoyl)-2-vinylcyclopropyl)-L-prolinamide]
[1]
  IC50: 0.0006 to 0.02 µM
[2]
  EC50: 0.003 to 0.1 µM

## C=C[C@@H]1C[C@]1(NC(=O)[C@@H]1C[C@@H](Oc2ncc(OC)c3ccc(Cl)cc23)CN1C(=O)[C@@H](Nc1cccc(C(=O)N(C)C)c1)C(C)(C)C)C(=O)NS(=O)(=O)C1CC1 [218 first isomer, N-(3-(dimethylcarbamoyl)phenyl)-3-methyl-L-valyl-(4R)-4-((7-chloro-4-methoxy-1-isoquinolinyl)oxy)-N-((1R,2S)-1-((cyclopropylsulfonyl)carbamoyl)-2-vinylcyclopropyl)-L-prolinamide]
[1]
  IC50: 0.0006 to 0.02 µM
[2]
  EC50: 0.003 to 0.1 µM

## C=C[C@@H]1C[C@]1(NC(=O)[C@@H]1C[C@@H](Oc2ncc(OC)c3ccc(Cl)cc23)CN1C(=O)[C@H](Nc1cccc(C(=O)N(C)C)c1)C(C)(C)C)C(=O)NS(=O)(=O)C1CC1 [218 second isomer, N-(3-(dimethylcarbamoyl)phenyl)-3-methyl-D-valyl-(4R)-4-((7-chloro-4-methoxy-1-isoquinolinyl)oxy)-N-((1R,2S)-1-((cyclopropylsulfonyl)carbamoyl)-2-vinylcyclopropyl)-L-prolinamide]
[1]
  IC50: > 0.2 µM
[2]
  EC50: > 1 µM

## C=C[C@@H]1C[C@]1(NC(=O)[C@@H]1C[C@@H](Oc2ncc(OC)c3ccc(Cl)cc23)CN1C(=O)[C@@H](Nc1cccc(S(=O)(=O)N(C)C)c1)C(C)(C)C)C(=O)NS(=O)(=O)C1CC1 [219 first isomer, N-(3-(dimethylsulfamoyl)phenyl)-3-methyl-L-valyl-(4R)-4-((7-chloro-4-methoxy-1-isoquinolinyl)oxy)-N-((1R,2S)-1-((cyclopropylsulfonyl)carbamoyl)-2-vinylcyclopropyl)-L-prolinamide]
[1]
  IC50: > 0.2 µM
[2]
  EC50: > 1 µM

## C=C[C@@H]1C[C@]1(NC(=O)[C@@H]1C[C@@H](Oc2ncc(OC)c3ccc(Cl)cc23)CN1C(=O)[C@H](Nc1cccc(S(=O)(=O)N(C)C)c1)C(C)(C)C)C(=O)NS(=O)(=O)C1CC1 [219 second isomer, N-(3-(dimethylsulfamoyl)phenyl)-3-methyl-D-valyl-(4R)-4-((7-chloro-4-methoxy-1-isoquinolinyl)oxy)-N-((1R,2S)-1-((cyclopropylsulfonyl)carbamoyl)-2-vinylcyclopropyl)-L-prolinamide]
[1]
  IC50: 0.0006 to 0.02 µM
[2]
  EC50: 0.003 to 0.1 µM

## C=C[C@@H]1C[C@]1(NC(=O)[C@@H]1C[C@@H](Oc2ncc(OC)c3ccc(Cl)cc23)CN1C(=O)[C@@H](Nc1ccc(F)c(F)c1)C(C)(C)C)C(=O)NS(=O)(=O)C1CC1 [220 first isomer, N-(3,4-difluorophenyl)-3-methyl-L-valyl-(4R)-4-((7-chloro-4-methoxy-1-isoquinolinyl)oxy)-N-((1R,2S)-1-((cyclopropylsulfonyl)carbamoyl)-2-vinylcyclopropyl)-L-prolinamide]
[1]
  IC50: 0.0006 to 0.02 µM
[2]
  EC50: 0.003 to 0.1 µM

## C=C[C@@H]1C[C@]1(NC(=O)[C@@H]1C[C@@H](Oc2ncc(OC)c3ccc(Cl)cc23)CN1C(=O)[C@H](Nc1ccc(F)c(F)c1)C(C)(C)C)C(=O)NS(=O)(=O)C1CC1 [220 second isomer, N-(3,4-difluorophenyl)-3-methyl-D-valyl-(4R)-4-((7-chloro-4-methoxy-1-isoquinolinyl)oxy)-N-((1R,2S)-1-((cyclopropylsulfonyl)carbamoyl)-2-vinylcyclopropyl)-L-prolinamide]
[1]
  IC50: > 0.2 µM
[2]
  EC50: 0.1 to 1 µM

## C=C[C@@H]1C[C@]1(NC(=O)[C@@H]1C[C@@H](Oc2ncc(OC)c3ccc(Cl)cc23)CN1C(=O)[C@@H](Nc1ccc(C(=O)N(C)C)cc1)C(C)(C)C)C(=O)NS(=O)(=O)C1CC1 [221 first isomer, N-(4-(dimethylcarbamoyl)phenyl)-3-methyl-L-valyl-(4R)-4-((7-chloro-4-methoxy-1-isoquinolinyl)oxy)-N-((1R,2S)-1-((cyclopropylsulfonyl)carbamoyl)-2-vinylcyclopropyl)-L-prolinamide]
[1]
  IC50: 0.0006 to 0.02 µM
[2]
  EC50: 0.1 to 1 µM

## C=C[C@@H]1C[C@]1(NC(=O)[C@@H]1C[C@@H](Oc2ncc(OC)c3ccc(Cl)cc23)CN1C(=O)[C@H](Nc1ccc(C(=O)N(C)C)cc1)C(C)(C)C)C(=O)NS(=O)(=O)C1CC1 [221 second isomer, N-(4-(dimethylcarbamoyl)phenyl)-3-methyl-D-valyl-(4R)-4-((7-chloro-4-methoxy-1-isoquinolinyl)oxy)-N-((1R,2S)-1-((cyclopropylsulfonyl)carbamoyl)-2-vinylcyclopropyl)-L-prolinamide]
[1]
  IC50: 0.02 to 0.2 µM
[2]
  EC50: > 1 µM

## C=C[C@@H]1C[C@]1(NC(=O)[C@@H]1C[C@@H](Oc2ncc(OC)c3ccc(Cl)cc23)CN1C(=O)[C@@H](Nc1ccc(S(=O)(=O)NCC)cc1)C(C)(C)C)C(=O)NS(=O)(=O)C1CC1 [223 first isomer, N-(4-(ethylsulfamoyl)phenyl)-3-methyl-L-valyl-(4R)-4-((7-chloro-4-methoxy-1-isoquinolinyl)oxy)-N-((1R,2S)-1-((cyclopropylsulfonyl)carbamoyl)-2-vinylcyclopropyl)-L-prolinamide]
[1]
  IC50: 0.0006 to 0.02 µM
[2]
  EC50: 0.1 to 1 µM
